Measurements: patent US20060293346A1, “Fungicidal mixtures” (priority 2003, published 2006)

System: Plasmopara viticola
Assay: Activity against peronospora of grapevines caused by Plasmopara viticola (protective spray of potted vines, cultivar Riesling)
Format: in vivo
Conditions: individual active compound, untreated control 84% infection
Experimental: The active compounds, separately or jointly, were prepared as a stock solution comprising 0.25% by weight of active compound in acetone or DMSO. 1% by weight of the emulsifier Uniperol® EL (wetting agent having emulsifying and dispersant action based on ethoxylated alkylphenols) was added to this solution, and the mixture was diluted with water to the desired concentration.
Use Example—Activity Against peronospora of Gravevines Caused by Plasmopara viticola
Leaves of potted vines of the cultivar “Riesling” were sprayed to runoff point with an aqueous suspension having the concentration of active compound stated below. The next day, the undersides of the leaves were inoculated with an aqueous zoospore suspension of Plasmopara viticola. The grapevines were then initially placed in a water-vapor-saturated chamber at 24° C. for 48 hours and then in a greenhouse at 20-30° C. for 5 days. After this period of time, the plants were again placed in a humid chamber for 16 hours to promote sporangiophore eruption. The extent of the development of the disease on the undersides of the leaves was then determined visually.
The visually determined percentages of infected leaf areas were converted into efficacies in % of the untreated control:
The efficacy (E) is calculated as follows using Abbot's formula: E=(1−α/β)·100 • α corresponds to the fungicidal infection of the treated plants in % and • β corresponds to the fungicidal infection of the untreated (control) plants in %
An efficacy of 0 means that the infection level of the treated plants corresponds to that of the untreated control plants; an efficacy of 100 means that the treated plants were not infected.
The expected efficacies of combinations of active compounds were determined using Colby's formula (Colby, S. R. “Calculating synergistic and antagonistic responses of herbicide combinations”, Weeds, 15, pp. 20-22, 1967) and compared with the observed efficacies.
Colby's Formula: E=x+y−x·y/100 • E expected efficacy, expressed in % of the untreated control, when using the mixture of the active compounds A and B at the concentrations a and b • x efficacy, expressed in % of the untreated control, when using the active compound A at the concentration a • y efficacy, expressed in % of the untreated control, when using the active compound B at the concentration b

[1] = 4 ppm in the spray liquor, vines Riesling

In the case of Fc1ccc(Oc2ccnc3cc(Cl)cc(Cl)c23)cc1 [II (quinoxyfen), 5,7-dichloro-4-(4-fluorophenoxy)quinoline], the “Efficacy in % of the untreated control” value (1 ppm in the spray liquor (cell prints 161 = 16 and 1)) is reported as 0% and the “Efficacy in % of the untreated control” value (16 ppm in the spray liquor (cell prints 161 = 16 and 1)) is reported as 16%.
CC1CCN(c2c(-c3c(F)cccc3Cl)c(Cl)nc3ncnn23)CC1 [A] was tested, and the “Efficacy in % of the untreated control” value [1] was 16%.
With C[C@H](Nc1c(-c2c(F)cc(F)cc2F)c(Cl)nc2ncnn12)C(F)(F)F [B] the “Efficacy in % of the untreated control” value [1] was 52%.
For CC1CCN(c2c(-c3c(F)cc(F)cc3F)c(Cl)nc3ncnn23)CC1 [I, 5-chloro-7-(4-methylpiperidin-1-yl)-6-(2,4,6-trifluorophenyl)-[1,2,4]triazolo[1,5-a]pyrimidine], the “Efficacy in % of the untreated control” value [1] was 52%.
